Experimental data taken from ChEMBL document CHEMBL5705887, “Distinct concentration-dependent effects of the polo-like kinase 1-specific inhibitor GSK461364A, including differential effect on apoptosis” (Cancer Res, 2009).
Calls of active or inactive are those of the source. The calls are words filed in the database; no cut-off is given here.

Key:
MIA PaCa-2 = assay: Antiproliferative activity against human MIA PaCa-2 cells assessed as of viable cell signal at minimum maximum cell growth incubated for 72 hrs by celltiter-glo assay relative to control; format: functional
A-431 = assay: Antiproliferative activity against human A-431 cells assessed as of viable cell signal at minimum maximum cell growth incubated for 72 hrs by celltiter-glo assay relative to control; format: functional
PC-3 = assay: Antiproliferative activity against human PC-3 cells assessed as of viable cell signal at minimum maximum cell growth incubated for 72 hrs by celltiter-glo assay relative to control; format: functional
A-427 = assay: Antiproliferative activity against human A-427 cells assessed as growth inhibition incubated for 72 hrs by celltiter-glo assay; format: functional
HN5 [1] = assay: Antiproliferative activity against human HN5 cells assessed as viable cell signal at maximum growth inhibition incubated for 72 hrs by celltiter-glo assay relative to control; format: functional
THP-1 = assay: Antiproliferative activity against human THP-1 cells assessed as of viable cell signal at minimum maximum cell growth incubated for 72 hrs by celltiter-glo assay relative to control; format: functional
RPMI-8226 [2] = assay: Antiproliferative activity against human RPMI-8226 cells assessed as growth inhibition incubated for 72 hrs by celltiter-glo assay; format: functional
RPMI-8226 [3] = assay: Antiproliferative activity against human RPMI-8226 cells assessed as of viable cell signal at minimum maximum cell growth incubated for 72 hrs by celltiter-glo assay relative to control; format: functional
COLO 205 [4] = assay: Antitumor activity against human COLO 205 cells xenografted in Nude mouse assessed as increase in pHH3 level at 50 mg/kg, ip measured at 24 hrs by immunohistochemistry analysis; format: functional, organism-based
Raji = assay: Antiproliferative activity against human Raji cells assessed as growth inhibition incubated for 72 hrs by celltiter-glo assay; format: functional
RKO = assay: Antiproliferative activity against human RKO cells assessed as viable cell signal at maximum growth inhibition incubated for 72 hrs by celltiter-glo assay relative to control; format: functional
SK-MEL-5 [5] = assay: Antiproliferative activity against human SK-MEL-5 cells assessed as growth inhibition incubated for 72 hrs by celltiter-glo assay; format: functional
COLO 205 [6] = assay: Antitumor activity against human COLO 205 cells xenografted in ip dosed Nude mouse assessed as increase in pHH3 level measured at 24 to 48 hrs by […]; format: functional, organism-based; details: dose 50-100 mg/kg, time 24-48 hrs
ZR-75-1 [7] = assay: Antiproliferative activity against human ZR-75-1 cells assessed as growth inhibition at > 250 nmol/L incubated for 72 hrs by celltiter-glo assay; format: functional, cell-based
ASPC1 = assay: Antiproliferative activity against human ASPC1 cells assessed as of viable cell signal at minimum maximum cell growth incubated for 72 hrs by celltiter-glo assay relative to control; format: functional
LNCaP = assay: Antiproliferative activity against human LNCaP cells assessed as viable cell signal at maximum growth inhibition incubated for 72 hrs by celltiter-glo assay relative to control; format: functional
BT-474 [8] = assay: Antiproliferative activity against human BT-474 cells assessed as growth inhibition incubated for 72 hrs by celltiter-glo assay; format: functional
BT-549 [9] = assay: Antiproliferative activity against human BT-549 cells assessed as viable cell signal at maximum growth inhibition incubated for 72 hrs by celltiter-glo assay relative to control; format: functional
Hep 3B2 [10] = assay: Antiproliferative activity against human Hep3B cells assessed as of viable cell signal at minimum maximum cell growth incubated for 72 hrs by celltiter-glo assay relative to control; format: functional
PANC-08-13 = assay: Antiproliferative activity against human PANC-08-13 cells assessed as of viable cell signal at minimum maximum cell growth incubated for 72 hrs by celltiter-glo assay relative to control; format: functional
ZR-75-1 [11] = assay: Antiproliferative activity against human ZR-75-1 cells assessed as viable cell signal at maximum growth inhibition incubated for 72 hrs by celltiter-glo assay relative to control; format: functional
SK-MEL-5 [12] = assay: Antiproliferative activity against human SK-MEL-5 cells assessed as of viable cell signal at minimum maximum cell growth incubated for 72 hrs by celltiter-glo assay relative to control; format: functional
A549 [13] = assay: Induction of mitotic arrest in human A549 cells assessed as effect on pHH3 level at 10 to 250 nmol/L incubated for 19 hrs by ELISA analysis; format: functional, cell-based; details: dose 10-250 nmol/L
NCI-H82 = assay: Antiproliferative activity against human NCI-H82 cells assessed as viable cell signal at maximum growth inhibition incubated for 72 hrs by celltiter-glo assay relative to control; format: functional
[14] = target: Serine/threonine-protein kinase WNK3 (Homo sapiens) (UniProt Q9BYP7); assay: Inhibition of N-terminal his6-tagged recombinant human WNK3 (1 to 434 residues) expressed in baculovirus Sf21 insect cells at 10 uM relative to control
Chain of Serine/threonine-protein kinase WNK3 (Homo sapiens) (Q9BYP7 whole entry, the tested form may be a part): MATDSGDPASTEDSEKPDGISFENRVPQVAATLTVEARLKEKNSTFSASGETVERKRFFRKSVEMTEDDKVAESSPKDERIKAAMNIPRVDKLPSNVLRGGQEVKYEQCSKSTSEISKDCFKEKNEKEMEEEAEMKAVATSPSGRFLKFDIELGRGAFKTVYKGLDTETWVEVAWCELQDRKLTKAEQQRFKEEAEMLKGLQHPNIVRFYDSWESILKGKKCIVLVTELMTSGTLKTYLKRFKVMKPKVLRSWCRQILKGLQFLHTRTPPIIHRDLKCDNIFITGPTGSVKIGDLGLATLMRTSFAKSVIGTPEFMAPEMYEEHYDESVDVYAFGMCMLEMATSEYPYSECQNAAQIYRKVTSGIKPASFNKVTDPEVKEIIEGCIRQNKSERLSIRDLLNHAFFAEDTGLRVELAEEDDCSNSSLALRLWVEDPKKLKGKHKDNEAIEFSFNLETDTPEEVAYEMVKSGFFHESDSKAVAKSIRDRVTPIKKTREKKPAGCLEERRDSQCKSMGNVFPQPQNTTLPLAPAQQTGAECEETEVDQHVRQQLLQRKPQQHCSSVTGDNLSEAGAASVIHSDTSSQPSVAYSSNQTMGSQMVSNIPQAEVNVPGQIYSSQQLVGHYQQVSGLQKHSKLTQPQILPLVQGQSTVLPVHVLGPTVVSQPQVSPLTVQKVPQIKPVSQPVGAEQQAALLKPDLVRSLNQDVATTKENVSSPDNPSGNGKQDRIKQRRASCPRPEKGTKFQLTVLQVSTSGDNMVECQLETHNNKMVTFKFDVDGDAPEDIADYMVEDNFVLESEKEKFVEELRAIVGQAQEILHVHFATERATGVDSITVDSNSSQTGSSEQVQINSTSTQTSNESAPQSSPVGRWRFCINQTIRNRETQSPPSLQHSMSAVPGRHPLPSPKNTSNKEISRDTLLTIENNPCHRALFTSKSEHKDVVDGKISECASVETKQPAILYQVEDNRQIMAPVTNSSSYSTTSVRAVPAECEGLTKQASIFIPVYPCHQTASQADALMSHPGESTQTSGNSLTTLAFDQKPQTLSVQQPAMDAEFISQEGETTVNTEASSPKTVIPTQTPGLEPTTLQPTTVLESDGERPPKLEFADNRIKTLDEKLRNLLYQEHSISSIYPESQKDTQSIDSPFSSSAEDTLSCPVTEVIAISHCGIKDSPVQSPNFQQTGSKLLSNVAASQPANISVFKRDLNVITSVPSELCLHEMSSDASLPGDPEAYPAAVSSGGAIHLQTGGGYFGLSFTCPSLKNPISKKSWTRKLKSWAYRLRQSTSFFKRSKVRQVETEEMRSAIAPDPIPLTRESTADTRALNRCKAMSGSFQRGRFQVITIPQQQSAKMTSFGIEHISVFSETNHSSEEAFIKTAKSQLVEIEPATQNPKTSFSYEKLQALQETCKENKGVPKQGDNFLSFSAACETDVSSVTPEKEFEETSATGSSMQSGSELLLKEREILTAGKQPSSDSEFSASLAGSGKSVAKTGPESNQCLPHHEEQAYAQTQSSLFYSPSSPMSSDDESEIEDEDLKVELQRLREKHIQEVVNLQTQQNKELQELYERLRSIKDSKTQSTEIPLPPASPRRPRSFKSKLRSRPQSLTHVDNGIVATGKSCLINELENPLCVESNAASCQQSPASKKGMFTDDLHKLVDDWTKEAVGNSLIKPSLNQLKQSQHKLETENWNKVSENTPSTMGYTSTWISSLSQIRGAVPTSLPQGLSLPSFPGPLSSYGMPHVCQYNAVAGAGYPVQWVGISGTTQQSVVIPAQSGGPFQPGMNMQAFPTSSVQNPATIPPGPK

BT-474 [15] = assay: Antiproliferative activity against human BT-474 cells assessed as viable cell signal at maximum growth inhibition incubated for 72 hrs by celltiter-glo assay relative to control; format: functional
SK-MEL-2 = assay: Antiproliferative activity against human SK-MEL-2 cells assessed as of viable cell signal at minimum maximum cell growth incubated for 72 hrs by celltiter-glo assay relative to control; format: functional
T47D = assay: Antiproliferative activity against human T47D cells assessed as viable cell signal at maximum growth inhibition incubated for 72 hrs by celltiter-glo assay relative to control; format: functional
Hep 3B2 [16] = assay: Antiproliferative activity against human Hep3B cells assessed as viable cell signal at maximum growth inhibition incubated for 72 hrs by celltiter-glo assay relative to control; format: functional
NCI-H1155 = assay: Antiproliferative activity against human NCI-H1155 cells assessed as growth inhibition incubated for 72 hrs by celltiter-glo assay; format: functional
[17] = Antiproliferative activity against human PL45 cells assessed as of viable cell signal at minimum maximum cell growth incubated for 72 hrs by celltiter-glo assay relative to control; format: functional
[18] = Antiproliferative activity against human A375P cells assessed as growth inhibition incubated for 72 hrs by celltiter-glo assay; format: functional
[19] = Antiproliferative activity against human PL45 cells assessed as viable cell signal at maximum growth inhibition incubated for 72 hrs by celltiter-glo assay relative to control; format: functional
[20] = target: PAS domain-containing serine/threonine-protein kinase (Homo sapiens) (UniProt Q96RG2); assay: Inhibition of recombinant human PASK at 10 uM relative to control
Chain of PAS domain-containing serine/threonine-protein kinase (Homo sapiens) (Q96RG2 whole entry, the tested form may be a part): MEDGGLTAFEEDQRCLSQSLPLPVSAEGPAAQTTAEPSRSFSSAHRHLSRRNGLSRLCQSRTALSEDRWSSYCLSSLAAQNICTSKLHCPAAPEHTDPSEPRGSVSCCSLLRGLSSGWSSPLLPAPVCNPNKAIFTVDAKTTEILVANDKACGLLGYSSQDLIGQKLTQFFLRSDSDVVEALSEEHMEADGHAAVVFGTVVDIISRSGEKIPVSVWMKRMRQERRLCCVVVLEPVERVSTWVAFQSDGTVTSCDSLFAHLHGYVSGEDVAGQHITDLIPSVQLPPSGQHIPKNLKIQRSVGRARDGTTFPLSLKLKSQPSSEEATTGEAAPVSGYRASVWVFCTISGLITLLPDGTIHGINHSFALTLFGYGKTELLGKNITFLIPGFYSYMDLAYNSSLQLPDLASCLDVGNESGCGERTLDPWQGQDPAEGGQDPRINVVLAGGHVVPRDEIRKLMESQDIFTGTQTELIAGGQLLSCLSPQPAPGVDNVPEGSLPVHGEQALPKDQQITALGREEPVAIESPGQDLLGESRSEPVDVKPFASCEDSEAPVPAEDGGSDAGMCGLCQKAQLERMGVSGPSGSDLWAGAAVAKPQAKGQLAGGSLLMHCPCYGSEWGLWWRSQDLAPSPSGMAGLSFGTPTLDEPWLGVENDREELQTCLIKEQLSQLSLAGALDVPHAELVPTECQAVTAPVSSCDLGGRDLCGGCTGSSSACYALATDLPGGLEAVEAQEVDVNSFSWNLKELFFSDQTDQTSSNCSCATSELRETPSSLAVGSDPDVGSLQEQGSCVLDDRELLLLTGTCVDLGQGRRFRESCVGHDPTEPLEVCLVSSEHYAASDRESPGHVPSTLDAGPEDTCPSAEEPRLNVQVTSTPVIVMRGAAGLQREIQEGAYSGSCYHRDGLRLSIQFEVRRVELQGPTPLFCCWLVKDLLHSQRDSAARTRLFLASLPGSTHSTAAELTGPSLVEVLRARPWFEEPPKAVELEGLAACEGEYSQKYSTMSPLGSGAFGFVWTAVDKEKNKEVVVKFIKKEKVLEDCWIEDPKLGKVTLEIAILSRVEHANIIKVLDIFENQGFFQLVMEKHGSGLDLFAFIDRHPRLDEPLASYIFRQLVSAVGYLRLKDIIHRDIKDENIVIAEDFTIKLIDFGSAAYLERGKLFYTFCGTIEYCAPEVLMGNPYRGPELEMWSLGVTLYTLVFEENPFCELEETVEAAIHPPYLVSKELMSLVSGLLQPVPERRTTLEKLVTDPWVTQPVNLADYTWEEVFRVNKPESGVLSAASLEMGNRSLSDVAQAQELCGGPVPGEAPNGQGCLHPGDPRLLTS

HCC1954 = assay: Antiproliferative activity against human HCC1954 cells assessed as viable cell signal at maximum growth inhibition incubated for 72 hrs by celltiter-glo assay relative to control; format: functional
HN5 [21] = assay: Antiproliferative activity against human HN5 cells assessed as growth inhibition incubated for 72 hrs by celltiter-glo assay; format: functional
NCI-H157 = assay: Antiproliferative activity against human NCI-H157 cells assessed as growth inhibition incubated for 72 hrs by celltiter-glo assay; format: functional
SK-MEL-28 = assay: Antiproliferative activity against human SK-MEL-28 cells assessed as viable cell signal at maximum growth inhibition incubated for 72 hrs by celltiter-glo assay relative to control; format: functional
[22] = Antiproliferative activity against human PL45 cells assessed as growth inhibition incubated for 72 hrs by celltiter-glo assay; format: functional
BT-549 [23] = assay: Antiproliferative activity against human BT-549 cells assessed as growth inhibition incubated for 72 hrs by celltiter-glo assay; format: functional
A549 [24] = assay: Antiproliferative activity against human A549 cells assessed as growth inhibition incubated for 72 hrs by celltiter-glo assay; format: functional

C[C@@H](Oc1cc(-n2cnc3ccc(CN4CCN(C)CC4)cc32)sc1C(N)=O)c1ccccc1C(F)(F)F [GSK-461364]
Emin (MIA PaCa-2): 100.2%
Emin (A-431): 151.5%
Emin (PC-3): 385.1%
GI50 (A-427): 0.0228 µM
Emax (HN5 [1]): 812%
Emin (THP-1): 60.3%
GI50 (RPMI-8226 [2]): 0.0225 µM
Emin (RPMI-8226 [3]): 34.6%
Activity (COLO 205 [4]): Active
GI50 (Raji): 0.0253 µM
Emax (RKO): 456%
GI50 (SK-MEL-5 [5]): 0.0284 µM
Activity (COLO 205 [6]): Dose-Dependent Effect
Activity (ZR-75-1 [7]): Active
Emin (ASPC1): 114%
Emax (LNCaP): 470%
GI50 (BT-474 [8]): 7.09 µM
Emax (BT-549 [9]): 265%
Emin (Hep 3B2 [10]): 132.1%
Emin (PANC-08-13): 131.3%
Emax (ZR-75-1 [11]): 229%
Emin (SK-MEL-5 [12]): 84%
Activity (A549 [13]): Active
Emax (NCI-H82): 398%
inhibition [14]: 68%
Emax (BT-474 [15]): 226%
Emin (SK-MEL-2): 71.3%
Emax (T47D): 320%
Emax (Hep 3B2 [16]): 220%
GI50 (NCI-H1155): 0.0144 µM
Emin [17]: 101.2%
GI50 [18]: 0.0236 µM
Emax [19]: 267%
inhibition [20]: 63%
Emax (HCC1954): 280%
GI50 (HN5 [21]): 0.0155 µM
GI50 (NCI-H157): 0.0253 µM
Emax (SK-MEL-28): 353%
GI50 [22]: 0.0219 µM
GI50 (BT-549 [23]): 0.0231 µM
GI50 (A549 [24]): 0.034 µM
